Test results from patent US11098072B2, “Alkenyl and beta-substituted phosphonates as antimicrobial agents” (The George Washington University, priority 2017, dated 2021).
Converted amounts (≈) assume the structure as drawn. Read-outs that look alike come from different tables or passages of the source.

Tests used:
P. falciparum = experiment: Growth inhibition against P. falciparum; assay type: cell-based; settings: for IC50: Plasmodium falciparum
P. falciparum DXR = target: T1, P. falciparum DXR (Plasmodium falciparum, UniProt Q8IKG4); experiment: Inhibition of P. falciparum DXR enzyme; assay type: biochemical; settings: for Pf DXR (% Residue): percent remaining enzyme activity at 100 μM compound
T1 sequence (Q8IKG4 73-488): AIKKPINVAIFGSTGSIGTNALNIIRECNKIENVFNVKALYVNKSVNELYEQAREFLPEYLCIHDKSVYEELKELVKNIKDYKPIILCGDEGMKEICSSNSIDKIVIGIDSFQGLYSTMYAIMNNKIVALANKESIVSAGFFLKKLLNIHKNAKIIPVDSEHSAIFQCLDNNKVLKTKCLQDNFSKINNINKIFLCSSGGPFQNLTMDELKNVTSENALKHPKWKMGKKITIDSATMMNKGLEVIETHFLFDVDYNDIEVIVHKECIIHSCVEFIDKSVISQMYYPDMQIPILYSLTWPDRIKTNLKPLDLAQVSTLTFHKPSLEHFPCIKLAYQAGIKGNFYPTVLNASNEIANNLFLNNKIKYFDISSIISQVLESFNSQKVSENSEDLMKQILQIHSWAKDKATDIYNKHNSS

[1] = test system: P. falciparum had1 mutant strain; assay type: cell-based; settings: in words
Mtb = Mtb growth inhibition (MIC99) in 7H9 and GAST-Fe media; assay type: cell-based, M. tuberculosis; settings: Mycobacterium tuberculosis
Protocol: Selected analogs were tested for the growth inhibition against P. falciparum and Mtb in both rich media (7H9) and minimal media (GAST-Fe) following reported procedures.

Mtb DXR = Mtb DXR (Mycobacterium tuberculosis, UniProt P9WNS1); experiment: Inhibition of Mtb DXR enzyme; assay type: biochemical, M. tuberculosis; settings: percent remaining enzyme activity at 100 μM compound
Mtb DXR, sequence (P9WNS1 whole entry): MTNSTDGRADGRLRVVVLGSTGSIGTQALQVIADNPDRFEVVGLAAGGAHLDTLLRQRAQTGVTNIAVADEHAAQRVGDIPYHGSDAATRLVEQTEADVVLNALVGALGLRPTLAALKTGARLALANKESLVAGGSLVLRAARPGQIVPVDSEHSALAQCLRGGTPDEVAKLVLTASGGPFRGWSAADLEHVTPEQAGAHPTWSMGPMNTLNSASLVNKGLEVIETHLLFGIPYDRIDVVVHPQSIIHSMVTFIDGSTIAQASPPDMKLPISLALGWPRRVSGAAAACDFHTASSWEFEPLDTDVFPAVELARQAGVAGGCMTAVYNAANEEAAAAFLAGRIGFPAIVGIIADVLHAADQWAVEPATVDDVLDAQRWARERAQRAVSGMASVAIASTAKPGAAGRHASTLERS
Protocol: Phosphonic acid salts and prodrugs were evaluated as inhibitors of DXR from Mtb and P. falciparum and the results are shown in Table 6. Initially, the percent remaining enzyme activity was studied using a treatment of each compound at a single concentration of 100 μM. […] In general, the compounds display greater inhibition of DXR from P. falciparum compared with activity against the Mtb homolog.

HepG2 cells = experiment: HepG2 cell inhibition (cytotoxicity) assay; assay type: cell-based; settings: Homo sapiens, HepG2; Table 6, cytotoxicity; read-out: HepG2 IC50
Protocol: For cytotoxicity assays, HepG2 cells (ATCC HB-8065) were grown in DMEM supplemented with 4 mM L-glutamine (Gibco #11966-025) with either 4.5 g/L D-glucose or 1.8 g/L galactose as carbon source. Cells were trypsinized, resuspended in the respective medium (DMEM/glutamine/glucose or DMEM/glutamine/galactose) to 4×10^5 cells/mL and 50 μL/well transferred to flat-bottom white opaque tissue culture plates (Falcon #353296) containing 50 μL/well of the respective medium with test compound. Compound concentrations were two-fold dilutions ranging from 50 μM to 0.049 μM as well as the drug-free DMSO-only control. All concentrations were tested in duplicate for each carbon source. After 24 h incubation at 5% CO2, 37° C., 10 μL/well of Celltiter-Glo reagent (Promega #G9241) was added and luminescence recorded after 20 min incubation in the dark.

[2] = Table 3, diethyl phosphonate analogs
[3] = Table 4, growth inhibition, read-out: Pf IC50
[4] = Table 2, phosphonic acid salts, read-out: Pf DXR IC50
[5] = Table 3, diethyl phosphonate analogs, read-out: P.f. IC50
[6] = minimal media (GAST-Fe), read-out: Mtb MIC99 Gast/Fe
[7] = rich media (7H9), read-out: Mtb MIC99 7H9
[8] = Table 6, growth inhibition, read-out: P.f. IC50

Compound: CCOP(=O)(/C=C/CN(O)C=O)OCC [Compound 11a, Diethyl [(1E)-3-(N-hydroxyformamido)prop-1-en-1-yl]phosphonate]
- P.f. IC50 (P. falciparum; [2]): >100 µg/mL

Compound: CCOP(=O)(/C=C/CN(O)C(=O)C(F)(F)F)OCC [Compound 11b, Diethyl [(1E)-3-(2,2,2-trifluoro-N-hydroxyacetamido)prop-1-en-1-yl]phosphonate]
- P.f. IC50 (P. falciparum; [2]): >100 µg/mL

Compound: CCOP(=O)(/C=C/CN(O)C(=O)OC)OCC [Compound 11c, Methyl N-[(2E)-3-(diethoxyphosphoryl)prop-2-en-1-yl]-N-hydroxycarbamate]
- P.f. IC50 (P. falciparum; [2]): >100 µg/mL

Compound: O=C(N(O)C/C=C/P(=O)([O-])O)C(F)(F)F.[Na+] [Compound 12b, Sodium hydrogen [(1E)-3-(2,2,2-trifluoro-N-hydroxyacetamido)prop-1-en-1-yl]phosphonate]
- IC50 (P. falciparum; [3]): 113 µM
- Pf DXR (% Residue) (P. falciparum DXR): (36.96) %

Compound: COC(=O)N(O)C/C=C/P(=O)(O)O [Compound 12c, Diammonium [(1E)-3-[hydroxy(methoxycarbonyl)amino]prop-1-en-1-yl]phosphonate]
- IC50 (P. falciparum; read-out: Pf IC50): 28.6 µM
- IC50 (P. falciparum DXR; [4]): 14.5 µM

Compound: CCOP(=O)(/C=C/CN(OC(C)c1ccccc1)C(C)=O)OCC (centres unmarked) [Compound 15d, Diethyl [(1E)-3-[N-(1-phenylethoxy)acetamido]prop-1-en-1-yl]phosphonate]
- IC50 (P. falciparum; [5]): 23.5 µg/mL

Compound: CCOP(=O)(/C=C/CN(OCc1ccc(C(C)C)cc1)C(C)=O)OCC [Compound 15e, Diethyl [(1E)-3-(N-{[4-(propan-2-yl)phenyl]methoxy}acetamido)prop-1-en-1-yl]phosphonate]
- IC50 (P. falciparum; [5]): 21.1 µg/mL

Compound: CCOP(=O)(/C=C/CN(OCc1ccc2ccccc2c1)C(C)=O)OCC [Compound 15f, Diethyl [(1E)-3-{N-[(naphthalen-2-yl)methoxy]acetamido}prop-1-en-1-yl]phosphonate]
- IC50 (P. falciparum; [5]): 29.6 µg/mL

Compound: CCOP(=O)(/C=C/CN(OCc1ccc(-c2ccccc2)cc1)C(C)=O)OCC [Compound 15g, Diethyl [(1E)-3-{N-[(4-phenylphenyl)methoxy]acetamido}prop-1-en-1-yl]phosphonate]
- IC50 (P. falciparum; [5]): 13.7 µg/mL

Compound: CC(=O)N(C/C=C/P(=O)(O)O)OC(C)c1ccccc1 (centres unmarked) [Compound 16d, Sodium hydrogen [(1E)-3-[N-(1-phenylethoxy)acetamido]prop-1-en-1-yl]phosphonate]
- IC50 (P. falciparum; [3]): 1.2 µM
- IC50 (P. falciparum DXR; [4]): 2.54 µM

Compound: CC(=O)N(C/C=C/P(=O)([O-])O)OCc1ccc(C(C)C)cc1.[Na+] [Compound 16e, Sodium hydrogen [(1E)-3-(N-{[4-(propan-2-yl)phenyl]methoxy}acetamido)prop-1-en-1-yl]phosphonate]
- IC50 (P. falciparum; [3]): 1.1 µM
- resistance of had1 parasites compared with wild-type [1]: more resistant
- IC50 (P. falciparum DXR; [4]): 2.11 µM

Compound: CC(=O)N(C/C=C/P(=O)([O-])O)OCc1ccc2ccccc2c1.[Na+] [Compound 16f, Sodium hydrogen [(1E)-3-{N-[(naphthalen-2-yl)methoxy]acetamido}prop-1-en-1-yl]phosphonate]
- IC50 (P. falciparum; [3]): 26 µM
- Pf DXR (% Residue) (P. falciparum DXR): (25) %

Compound: CC(=O)N(C/C=C/P(=O)(O)O)OCc1ccc(-c2ccccc2)cc1 [Compound 16g, Sodium hydrogen [(1E)-3-{N-[(4-phenylphenyl)methoxy]acetamido}prop-1-en-1-yl]phosphonate]
- IC50 (P. falciparum; [3]): 2.3 µM
- IC50 (P. falciparum DXR; [4]): 4.53 µM

Compound: CC(C)(C)C(=O)OCOP(=O)(/C=C/CN(O)C(=O)C(F)(F)F)OCOC(=O)C(C)(C)C [Compound 18b, [({[(2,2-dimethylpropanoyl)oxy]methoxy}[(1E)-3-(2,2,2-trifluoro-N-hydroxyacetamido)prop-1-en-1-yl]phosphoryl)oxy]methyl 2,2-dimethylpropanoate]
- IC50 (P. falciparum; [3]): 14.2 µM

Compound: COC(=O)N(O)C/C=C/P(=O)(OCOC(=O)C(C)(C)C)OCOC(=O)C(C)(C)C [Compound 18c, [({[(2,2-dimethylpropanoyl)oxy]methoxy}[(1E)-3-[hydroxy(methoxycarbonyl)amino]prop-1-en-1-yl]phosphoryl)oxy]methyl 2,2-dimethylpropanoate]
- IC50 (P. falciparum; [3]): 23.7 µM

Compound: CC(=O)N(C/C=C/P(=O)(OCOC(=O)C(C)(C)C)OCOC(=O)C(C)(C)C)OCc1ccc(C(C)C)cc1 [Compound 19e, [({[(2,2-dimethylpropanoyl)oxy]methoxy}[(1E)-3-(N-{[4-(propan-2-yl)phenyl]methoxy}acetamido)prop-1-en-1-yl]phosphoryl)oxy]methyl 2,2-dimethylpropanoate]
- IC50 (P. falciparum; [3]): 55.1 µM

Compound: CC(=O)N(C/C=C/P(=O)(OCOC(=O)C(C)(C)C)OCOC(=O)C(C)(C)C)OCc1ccc2ccccc2c1 [Compound 19f, [({[(2,2-dimethylpropanoyl)oxy]methoxy}[(1E)-3-{N-[(naphthalen-2-yl)methoxy]acetamido}prop-1-en-1-yl]phosphoryl)oxy]methyl 2,2-dimethylpropanoate]
- IC50 (P. falciparum; [3]): 49.9 µM

Compound: CC(=O)N(C/C=C/P(=O)(OCOC(=O)C(C)(C)C)OCOC(=O)C(C)(C)C)OCc1ccc(-c2ccccc2)cc1 [Compound 19g, [({[(2,2-dimethylpropanoyl)oxy]methoxy}[(1E)-3-{N-[(4-phenylphenyl)methoxy]acetamido}prop-1-en-1-yl]phosphoryl)oxy]methyl 2,2-dimethylpropanoate]
- IC50 (P. falciparum; [3]): 43.2 µM

Compound: CCOP(=O)(/C=C/CN(O)C(=O)c1ccccc1)OCC [Compound 31a, Diethyl [(1E)-3-(N-hydroxy-1-phenylformamido)prop-1-en-1-yl]phosphonate]
- MIC99 (Mtb; [6]): > 100 µg/mL
- MIC99 (Mtb; [7]): > 100 µg/mL
- IC50 (P. falciparum; [8]): > 100 µg/mL

Compound: CCOP(=O)(/C=C/CN(O)C(=O)Cc1ccccc1)OCC [Compound 31b, Diethyl [(1E)-3-(N-hydroxy-2-phenylacetamido)prop-1-en-1-yl]phosphonate]
- MIC99 (Mtb; [7]): > 100 µg/mL
- IC50 (P. falciparum; [8]): 110 µg/mL

Compound: CCOP(=O)(/C=C/CN(O)C(=O)CCc1ccccc1)OCC [Compound 31c, Diethyl [(1E)-3-(N-hydroxy-3-phenylpropanamido)prop-1-en-1-yl]phosphonate]
- MIC99 (Mtb; [6]): > 100 µg/mL
- MIC99 (Mtb; [7]): > 100 µg/mL
- IC50 (P. falciparum; [8]): > 100 µg/mL

Compound: CCOP(=O)(/C=C/CN(O)C(=O)CCCc1ccccc1)OCC [Compound 31d, Diethyl [(1E)-3-(N-hydroxy-4-phenylbutanamido)prop-1-en-1-yl]phosphonate]
- MIC99 (Mtb; [6]): > 100 µg/mL
- MIC99 (Mtb; [7]): > 100 µg/mL
- IC50 (P. falciparum; [8]): 11.1 µg/mL

Compound: O=C(Cc1ccccc1)N(O)C/C=C/P(=O)([O-])O.[Na+] [Compound 32b, Sodium hydrogen [(1E)-3-(N-hydroxy-2-phenylacetamido)prop-1-en-1-yl]phosphonate]
- MIC99 (Mtb; [7]): > 100 µg/mL
- IC50 (P. falciparum; [8]): 0.137 µg/mL
- IC50 (P. falciparum DXR; Table 6, N-acyl analogs, read-out: Pf Dxr IC50): 0.17 µM
- Mtb Dxr (% Residue) (Mtb DXR): (33.6) %

Compound: CC(C)(C)C(=O)OCOP(=O)(/C=C/CN(O)C(=O)c1ccccc1)OCOC(=O)C(C)(C)C [Compound 33a, [({[(2,2-dimethylpropanoyl)oxy]methoxy}[(1E)-3-(N-hydroxy-1-phenylformamido)prop-1-en-1-yl]phosphoryl)oxy]methyl 2,2-dimethylpropanoate]
- MIC99 (Mtb; [7]): 50 µg/mL (≈ 103 µM)
- IC50 (HepG2 cells): > 50 µM
- IC50 (P. falciparum; [8]): 0.097 µg/mL
- resistance of had1 parasites compared with wild-type [1]: more resistant

Compound: CC(C)(C)C(=O)OCOP(=O)(/C=C/CN(O)C(=O)Cc1ccccc1)OCOC(=O)C(C)(C)C [Compound 33b, [({[(2,2-dimethylpropanoyl)oxy]methoxy}[(1E)-3-(N-hydroxy-2-phenylacetamido)prop-1-en-1-yl]phosphoryl)oxy]methyl 2,2-dimethylpropanoate]
- MIC99 (Mtb; [6]): 74 µg/mL (≈ 148 µM)
- MIC99 (Mtb; [7]): 100 µg/mL (≈ 200 µM)
- IC50 (P. falciparum; [8]): 0.152 µg/mL

Compound: CC(C)(C)C(=O)OCOP(=O)(/C=C/CN(O)C(=O)CCCc1ccccc1)OCOC(=O)C(C)(C)C [Compound 33d, [({[(2,2-dimethylpropanoyl)oxy]methoxy}[(1E)-3-(N-hydroxy-4-phenylbutanamido)prop-1-en-1-yl]phosphoryl)oxy]methyl 2,2-dimethylpropanoate]
- MIC99 (Mtb; [6]): 37 µg/mL (≈ 70.1 µM)
- MIC99 (Mtb; [7]): > 100 µg/mL
- IC50 (P. falciparum; [8]): 2.4 µg/mL
